Data on 1 compound can be found in ChEMBL document CHEMBL4831493 (Eur J Med Chem, 2021).

Molecules are shown by their SMILES. Calls of active or inactive are those of the source. No cut-off for these calls is given here.

Data set [1] is described as follows: Half life in Sprague-Dawley rat at 1 mg/kg, iv measured up to 24 hrs by LC-MS/MS analysis. The format is ADME, organism-based. As to conditions: in vivo.
Data set [2] has as its target Glycogen synthase kinase-3 beta (Mus musculus) (UniProt Q9WV60). The data set can be described thus: Inhibition of GSK3beta in mouse N2a cells overexpressing human tau assessed as decrease in tau phosphorylation at Ser 396 residue measured after 6 hrs by Western blot assay. The class given is cell-based.
Data set [3] concerns the target Dual specificity tyrosine-phosphorylation-regulated kinase 1B (Homo sapiens) (UniProt Q9Y463). Put plainly: Inhibition of dyrk1 beta (unknown origin) at 0.3 uM.
Data set [4] addresses Glycogen synthase kinase-3 beta (Mus musculus) (UniProt Q9WV60). The data set can be described thus: Inhibition of GSK3beta in glutamate-induced mouse HT-22 cells assessed as increase in synaptophysin level at 0.6 uM pretreated with glutamate for 24 hrs followed by compound treatment by immunocytochemistry assay. The format is cell-based.
The nature of data set [5]: Drug level in ICR mouse plasma at 10 mg/kg, po measured after 1.5 hrs by LC/MS/MS analysis. The class given is ADME, organism-based.
A short description of data set [6]: Ratio of drug level in brain to plasma of ICR mouse at 10 mg/kg, po measured after 1 hr by LC/MS/MS analysis. As to conditions: brain and plasma. The class given is ADME, organism-based.
Data set [7] in a line: Toxicity in amyloid beta (1 to 42)-induced mouse model of Alzheimer's disease assessed as changes in swimming speed at 10 mg/kg/day, po measured after 9 days. The format is organism-based. As to conditions: in vivo, 216 h, time 9 day.
In data set [8] the target is Mitogen-activated protein kinase 13 (Homo sapiens) (UniProt O15264). Put plainly: Inhibition of p38delta (unknown origin) at 0.3 uM.
Data set [9] concerns the target Cyclin-dependent kinase 9 (Homo sapiens) (UniProt P50750). The data set can be described thus: Inhibition of CDK9 (unknown origin) at 0.3 uM.
The next data set relates to Mus musculus. Put plainly: Improvement in learning and spatial memory in amyloid beta (1 to 42)-induced mouse model of Alzheimer's disease assessed as increase in spontaneous alteration at 10 mg/kg/day, po pretreated with amyloid beta42 for 3 days followed by treatment with compound and measured after 9 days measured by Y-maze test. The class given is functional, organism-based. As to conditions: time 9.0 day.

Data set [10] has as its target Mitogen-activated protein kinase 9 (Homo sapiens) (UniProt P45984). The data set can be described thus: Inhibition of JNK2 (unknown origin) at 0.3 uM.
Data set [11] addresses T1, Acetylcholinesterase (Mus musculus) (UniProt P21836).
T1 sequence (whole entry): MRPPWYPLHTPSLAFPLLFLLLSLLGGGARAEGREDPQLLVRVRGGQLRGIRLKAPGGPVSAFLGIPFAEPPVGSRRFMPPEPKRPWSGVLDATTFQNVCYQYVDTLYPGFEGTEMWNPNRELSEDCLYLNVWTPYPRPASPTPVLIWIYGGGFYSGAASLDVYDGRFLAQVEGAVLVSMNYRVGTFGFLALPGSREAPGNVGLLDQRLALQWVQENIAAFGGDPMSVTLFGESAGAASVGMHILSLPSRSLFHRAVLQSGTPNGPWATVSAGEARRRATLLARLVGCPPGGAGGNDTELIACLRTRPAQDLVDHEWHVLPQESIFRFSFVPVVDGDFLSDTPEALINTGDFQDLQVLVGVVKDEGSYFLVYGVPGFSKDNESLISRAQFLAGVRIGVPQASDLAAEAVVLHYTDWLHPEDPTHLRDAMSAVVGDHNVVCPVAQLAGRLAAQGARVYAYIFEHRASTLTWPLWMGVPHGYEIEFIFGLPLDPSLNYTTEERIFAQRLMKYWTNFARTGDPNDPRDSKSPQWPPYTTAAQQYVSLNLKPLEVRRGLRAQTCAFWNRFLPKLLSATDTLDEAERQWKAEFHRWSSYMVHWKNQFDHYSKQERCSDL
As to conditions: ICR, dose 10.0 mg/kg, time 1.5 hrs.

The target of data set [12] is Cyclin-dependent kinase 2 (Homo sapiens) (UniProt P24941). Put plainly: Inhibition of CDK2 (unknown origin) at 0.3 uM.
Data set [13] deals with Mitogen-activated protein kinase 12 (Homo sapiens) (UniProt P53778). The data set can be described thus: Inhibition of p38gamma (unknown origin) at 0.3 uM.
Data set [14] deals with Glycogen synthase kinase-3 beta (Mus musculus) (UniProt Q9WV60). Put plainly: Inhibition of GSK3beta in mouse N2a cells overexpressing human tau assessed as decrease in tau phosphorylation at Ser396 residue at 0.9 uM measured after 6 hrs by Western blot assay. The class given is cell-based.
For data set [15], the target named is Cyclin-dependent kinase 1 (Homo sapiens) (UniProt P06493). Put plainly: Inhibition of CDK1 (unknown origin) at 0.3 uM.
Data set [16] is described as follows: Ratio of drug level in brain to plasma of ICR mouse at 10 mg/kg, po measured after 1.5 hrs by LC/MS/MS analysis. The class given is ADME, organism-based. As to conditions: brain and plasma.
The nature of data set [17]: MRT (0 to infinity) in Sprague-Dawley rat at 1 mg/kg, iv measured up to 24 hrs by LC-MS/MS analysis. As to conditions: in vivo. The format is ADME, organism-based.
Data set [18] in a line: AUC (0 to infinity) in Sprague-Dawley rat at 10 mg/kg, po measured up to 24 hrs by LC-MS/MS analysis. The format is ADME, organism-based. Also on record: route oral, dose 10 mg/kg, time <=24. As to conditions: in vivo.

Glycogen synthase kinase-3 beta (Mus musculus), sequence (Q9WV60 whole entry, looked up): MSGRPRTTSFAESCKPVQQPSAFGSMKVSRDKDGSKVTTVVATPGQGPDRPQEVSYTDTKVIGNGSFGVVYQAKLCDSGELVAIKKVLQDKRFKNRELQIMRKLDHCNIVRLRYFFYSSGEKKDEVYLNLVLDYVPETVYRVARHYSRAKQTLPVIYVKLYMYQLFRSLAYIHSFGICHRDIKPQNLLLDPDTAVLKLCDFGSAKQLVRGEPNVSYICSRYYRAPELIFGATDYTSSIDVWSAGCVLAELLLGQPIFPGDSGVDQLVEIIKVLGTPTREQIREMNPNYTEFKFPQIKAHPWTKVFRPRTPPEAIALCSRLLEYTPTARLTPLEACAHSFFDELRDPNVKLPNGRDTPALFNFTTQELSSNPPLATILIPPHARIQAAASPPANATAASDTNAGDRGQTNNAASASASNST
Mitogen-activated protein kinase 9 (Homo sapiens), sequence (P45984 whole entry, looked up): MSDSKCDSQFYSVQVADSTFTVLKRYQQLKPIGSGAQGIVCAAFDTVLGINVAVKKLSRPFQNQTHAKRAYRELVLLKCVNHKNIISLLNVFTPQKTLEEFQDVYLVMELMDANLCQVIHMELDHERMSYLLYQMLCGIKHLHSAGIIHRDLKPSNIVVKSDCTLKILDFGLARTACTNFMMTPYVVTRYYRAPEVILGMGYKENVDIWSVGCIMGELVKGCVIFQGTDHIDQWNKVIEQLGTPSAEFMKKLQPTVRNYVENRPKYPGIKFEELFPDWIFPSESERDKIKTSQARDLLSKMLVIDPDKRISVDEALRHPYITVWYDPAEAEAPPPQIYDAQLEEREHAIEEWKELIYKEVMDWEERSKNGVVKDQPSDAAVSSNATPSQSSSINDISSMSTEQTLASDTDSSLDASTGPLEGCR
Cyclin-dependent kinase 9 (Homo sapiens), sequence (P50750 whole entry): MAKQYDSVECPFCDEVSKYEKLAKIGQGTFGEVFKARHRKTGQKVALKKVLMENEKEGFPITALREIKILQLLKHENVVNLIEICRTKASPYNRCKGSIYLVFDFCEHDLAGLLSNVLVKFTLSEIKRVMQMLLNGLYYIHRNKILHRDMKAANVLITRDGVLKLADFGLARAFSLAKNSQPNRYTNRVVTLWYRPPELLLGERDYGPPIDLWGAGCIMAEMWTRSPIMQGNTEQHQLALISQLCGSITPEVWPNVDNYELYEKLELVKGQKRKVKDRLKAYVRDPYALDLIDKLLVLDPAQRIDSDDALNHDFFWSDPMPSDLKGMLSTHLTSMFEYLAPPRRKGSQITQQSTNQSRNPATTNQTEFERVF
Cyclin-dependent kinase 1 (Homo sapiens), sequence (P06493 whole entry, looked up): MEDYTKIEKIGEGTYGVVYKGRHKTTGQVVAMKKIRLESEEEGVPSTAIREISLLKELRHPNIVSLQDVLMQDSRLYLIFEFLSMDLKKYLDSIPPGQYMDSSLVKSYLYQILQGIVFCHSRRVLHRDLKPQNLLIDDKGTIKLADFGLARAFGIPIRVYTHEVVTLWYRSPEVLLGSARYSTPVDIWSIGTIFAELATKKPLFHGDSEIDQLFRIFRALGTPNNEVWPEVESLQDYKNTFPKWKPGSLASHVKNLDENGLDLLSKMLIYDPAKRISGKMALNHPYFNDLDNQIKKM
Mitogen-activated protein kinase 12 (Homo sapiens), sequence (P53778 whole entry): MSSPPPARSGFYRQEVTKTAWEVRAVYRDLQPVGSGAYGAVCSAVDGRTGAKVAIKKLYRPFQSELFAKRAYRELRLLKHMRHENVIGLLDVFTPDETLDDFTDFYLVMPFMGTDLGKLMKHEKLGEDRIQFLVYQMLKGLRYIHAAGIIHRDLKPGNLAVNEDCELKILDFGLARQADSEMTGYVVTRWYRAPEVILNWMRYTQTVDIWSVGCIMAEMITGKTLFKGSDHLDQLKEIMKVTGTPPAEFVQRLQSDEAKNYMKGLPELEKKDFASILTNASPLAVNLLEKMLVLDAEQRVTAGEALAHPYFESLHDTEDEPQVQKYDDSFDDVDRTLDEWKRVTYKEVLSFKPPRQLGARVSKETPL
Dual specificity tyrosine-phosphorylation-regulated kinase 1B (Homo sapiens), sequence (Q9Y463 whole entry, looked up): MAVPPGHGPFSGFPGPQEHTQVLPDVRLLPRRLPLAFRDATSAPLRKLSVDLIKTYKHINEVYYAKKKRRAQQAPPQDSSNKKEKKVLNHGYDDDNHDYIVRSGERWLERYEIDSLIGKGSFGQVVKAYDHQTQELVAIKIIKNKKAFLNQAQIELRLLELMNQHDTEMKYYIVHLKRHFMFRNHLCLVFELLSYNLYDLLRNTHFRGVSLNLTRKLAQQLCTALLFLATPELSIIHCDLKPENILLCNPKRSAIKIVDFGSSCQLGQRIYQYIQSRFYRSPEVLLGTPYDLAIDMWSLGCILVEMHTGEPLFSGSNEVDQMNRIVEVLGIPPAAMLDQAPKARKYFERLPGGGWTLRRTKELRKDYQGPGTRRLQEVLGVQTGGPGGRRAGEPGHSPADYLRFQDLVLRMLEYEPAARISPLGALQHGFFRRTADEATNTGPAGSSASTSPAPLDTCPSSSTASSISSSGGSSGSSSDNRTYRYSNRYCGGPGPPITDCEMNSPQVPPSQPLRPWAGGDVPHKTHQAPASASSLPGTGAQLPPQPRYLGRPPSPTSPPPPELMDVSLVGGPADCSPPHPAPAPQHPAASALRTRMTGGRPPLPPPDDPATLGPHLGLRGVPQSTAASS
Mitogen-activated protein kinase 13 (Homo sapiens), sequence (O15264 whole entry): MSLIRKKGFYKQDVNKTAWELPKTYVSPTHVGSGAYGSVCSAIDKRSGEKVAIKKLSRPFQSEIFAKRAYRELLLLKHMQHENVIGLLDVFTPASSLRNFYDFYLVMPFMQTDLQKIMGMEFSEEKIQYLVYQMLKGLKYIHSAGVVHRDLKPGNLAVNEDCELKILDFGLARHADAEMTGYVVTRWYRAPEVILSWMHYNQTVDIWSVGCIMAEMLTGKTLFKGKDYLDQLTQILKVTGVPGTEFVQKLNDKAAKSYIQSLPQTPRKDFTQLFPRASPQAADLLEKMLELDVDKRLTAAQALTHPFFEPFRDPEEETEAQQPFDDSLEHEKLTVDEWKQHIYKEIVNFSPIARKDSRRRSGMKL

`O=C(Nc1cncc(OCC2CCN(Cc3ccc(F)cc3)CC2)c1)c1ccnc(NC(=O)C2CC2)c1` gave a half-life in data set [1] of 5.2 h. Also, the values for the inhibition entry in data set [2] and in data set [11] were “Dose-Dependent Effect” and 85.5%, respectively. Besides, the inhibition result in [3], in data set [8], in [9], in data set [10], in [12] and in data set [13] was “inactive” throughout. For the same compound, the inhibition entry in data set [14] and in data set [15] was “inactive” each time. The inhibition entry in [4] is “Active”. The concentration at 1.5 h in [5] worked out at 343 ng/g. In addition, in data set [6], the Kp at 1 h came out at 0.153. Moreover, the Activity entry in data set [7] is “Non-Toxic”. In addition, the result in the data set with Mus musculus was Active. Moreover, the partition ratio (Kp) at 1.5 h in data set [16] was 0.33. Also, the MRT inf in data set [17] turned out to be 5.1 h. The total exposure AUC(0-inf) in data set [18] is 1260 ng·h/mL.
